Results published in ChEMBL document CHEMBL4177767, “Discovery of N2-(4-Amino-cyclohexyl)-9-cyclopentyl- N6-(4-morpholin-4-ylmethyl-phenyl)- 9H-purine-2,6-diamine as a Potent FLT3 Kinase Inhibitor for Acute Myeloid Leukemia with FLT3 Mutations” (J Med Chem, 2018).

Key:
[1] = target: Receptor-type tyrosine-protein kinase FLT3 (Homo sapiens, UniProt P36888, ITD); test: biochemical; type: cell-based, Sf9
Description: Inhibition of N-terminal GST/His6-fused recombinant human FLT3 (R571 to S993 residues) ITD mutant expressed in Sf9 insect cells using poly (Ala,Glu,Lys,Tyr) 6:2:5:1 hydrobromide as substrate in presence of [gamma-33P]ATP

K562 = test: cells; conditions: Homo sapiens, K562, 72 h
MV4-11 = test: Growth inhibition of human MV4-11 cells after 72 hrs by calcein AM dye-based fluorescence assay; type: functional; conditions: MV4-11, 72 h
in vitro [2] = conditions: human, HUVEC
Kasumi 1 = test: cells; conditions: Homo sapiens, Kasumi 1, 72 h
in vitro [3] = conditions: human, MRC5 cells
HCC827 = test: cells; conditions: Homo sapiens, HCC827, 72 h
MOLM-13 = test: cells; conditions: Homo sapiens, MOLM-13, 72 h
THP-1 = test: cells; conditions: Homo sapiens, THP-1, 72 h
in vitro [4] = conditions: human, BJ cells
[5] = target: T1, Receptor-type tyrosine-protein kinase FLT3 (Homo sapiens, UniProt P36888); test: biochemical; type: cell-based, Sf9
T1 sequence (P36888 whole entry): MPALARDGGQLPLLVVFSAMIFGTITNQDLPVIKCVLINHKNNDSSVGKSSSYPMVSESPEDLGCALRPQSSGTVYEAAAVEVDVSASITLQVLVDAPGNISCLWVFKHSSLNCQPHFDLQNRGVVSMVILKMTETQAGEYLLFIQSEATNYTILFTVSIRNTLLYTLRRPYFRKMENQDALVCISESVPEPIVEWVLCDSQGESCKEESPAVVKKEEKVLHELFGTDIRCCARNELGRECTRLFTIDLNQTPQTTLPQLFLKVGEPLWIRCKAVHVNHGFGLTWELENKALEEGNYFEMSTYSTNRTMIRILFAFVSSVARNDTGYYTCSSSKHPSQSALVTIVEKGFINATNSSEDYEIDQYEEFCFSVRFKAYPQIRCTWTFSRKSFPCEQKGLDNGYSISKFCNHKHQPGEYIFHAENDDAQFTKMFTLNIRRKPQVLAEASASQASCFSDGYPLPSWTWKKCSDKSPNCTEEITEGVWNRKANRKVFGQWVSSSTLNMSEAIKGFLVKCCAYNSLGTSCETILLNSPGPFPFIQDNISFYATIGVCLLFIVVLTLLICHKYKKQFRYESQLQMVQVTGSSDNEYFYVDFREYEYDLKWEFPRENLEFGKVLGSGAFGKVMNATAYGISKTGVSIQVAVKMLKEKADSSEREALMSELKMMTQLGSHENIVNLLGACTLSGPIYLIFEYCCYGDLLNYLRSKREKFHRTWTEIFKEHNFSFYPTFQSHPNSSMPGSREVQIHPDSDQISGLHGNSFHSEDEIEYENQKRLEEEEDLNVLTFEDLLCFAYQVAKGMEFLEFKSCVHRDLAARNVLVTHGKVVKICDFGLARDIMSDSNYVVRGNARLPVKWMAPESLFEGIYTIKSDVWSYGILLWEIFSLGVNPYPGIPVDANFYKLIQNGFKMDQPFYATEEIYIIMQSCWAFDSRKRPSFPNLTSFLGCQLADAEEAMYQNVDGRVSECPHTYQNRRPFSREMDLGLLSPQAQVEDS
Description: Inhibition of N-terminal GST/His6-fused recombinant wild type human FLT3 (R571 to S993 residues) expressed in Sf9 insect cells using poly (Ala,Glu,Lys,Tyr) 6:2:5:1 hydrobromide as substrate in presence of [gamma-33P]ATP

MCF7 = test: cells; conditions: Homo sapiens, MCF7, 72 h
[6] = target: Receptor-type tyrosine-protein kinase FLT3 (Homo sapiens, UniProt P36888, D835Y); test: biochemical; type: cell-based, Sf9
Description: Inhibition of N-terminal GST/His6-fused recombinant human FLT3 (R571 to S993 residues) D835Y mutant expressed in Sf9 insect cells using poly (Ala,Glu,Lys,Tyr) 6:2:5:1 hydrobromide as substrate in presence of [gamma-33P]ATP

U-937 = test: cells; conditions: Homo sapiens, U-937, 72 h

| Structure (SMILES) | IC50 [1] [nM] | GI50 (K562) [µM] | GI50 (MV4-11) [nM] | GI50 at 72 h (in vitro [2]) [µM] | GI50 at 72 h (in vitro [3]) [µM] | GI50 (HCC827) [nM] | GI50 (MOLM-13) [nM] | GI50 (THP-1) [µM] | GI50 at 72 h (in vitro [4]) [µM] | IC50 [5] [nM] | GI50 (MCF7) [nM] | IC50 [6] [nM] | GI50 (U-937) [nM] | GI50 (Kasumi 1) [nM] |
| --- | --- | --- | --- | --- | --- | --- | --- | --- | --- | --- | --- | --- | --- | --- |
| OCCCCNc1nc(Nc2ccc(CN3CCOCC3)cc2)c2ncn(C3CCCC3)c2n1 | 18 | 1.45 | 83 | – | – | – | – | – | – | – | – | – | – | – |
| c1cc(Nc2nc(N3CCCCC3)nc3c2ncn3C2CCCC2)ccc1CN1CCOCC1 | 50 | 11 | 701 | – | – | – | – | – | – | – | – | – | – | – |
| C[C@@H](CO)CNc1nc(Nc2ccc(Br)cc2)c2ncn(C3CCCC3)c2n1 | 281 | 7.63 | 1310 | – | – | – | – | – | – | – | – | – | – | – |
| CC(C)n1cnc2c(Nc3ccc(Br)cc3)nc(N[C@H]3CC[C@H](N)CC3)nc21 | 10 | 1.17 | 7 | – | – | – | – | – | – | – | – | – | – | – |
| OCCCNc1nc(Nc2ccc(CN3CCOCC3)cc2)c2ncn(C3CCCC3)c2n1 | 47 | 2.35 | 157 | – | – | – | – | – | – | – | – | – | – | – |
| c1cc(N2CCOCC2)ncc1Nc1nc(N2CCOCC2)nc2c1ncn2C1CCCC1 | 71 | > 25 | 70 | – | – | – | – | – | – | – | – | – | – | – |
| N[C@H]1CC[C@H](Nc2nc(Nc3ccc(Br)cc3)c3ncn(C4CCCCO4)c3n2)CC1 (stereo partly drawn) | 70 | 5.17 | 181 | – | – | – | – | – | – | – | – | – | – | – |
| CC(O)CNc1nc(Nc2ccc(Br)cc2)c2ncn(C3CCCC3)c2n1 (stereo not drawn) | 628 | > 25 | 444 | – | – | – | – | – | – | – | – | – | – | – |
| c1cc(Nc2nc(N3CCOCC3)nc3c2ncn3C2CCCC2)ccc1CN1CCOCC1 | 19 | 4.47 | 61 | – | – | – | – | – | – | – | – | – | – | – |
| CN1CCN(c2nc(Nc3ccc(Br)cc3)c3ncn(C4CCCCO4)c3n2)CC1 (stereo not drawn) | 4210 | 7.13 | 3200 | – | – | – | – | – | – | – | – | – | – | – |
| CN1CCN(c2nc(Nc3ccc(CN4CCOCC4)cc3)c3ncn(C4CCCC4)c3n2)CC1 | 53 | 2.75 | 66 | – | – | – | – | – | – | – | – | – | – | – |
| CC(O)CNc1nc(Nc2ccc(Cl)cc2)c2ncn(C3CCCC3)c2n1 (stereo not drawn) | 1720 | 10.9 | 235 | – | – | – | – | – | – | – | – | – | – | – |
| Brc1ccc(Nc2nc(N3CCOCC3)nc3c2ncn3C2CCCCO2)cc1 (stereo not drawn) | 1200 | 3.75 | 3880 | – | – | – | – | – | – | – | – | – | – | – |
| Brc1ccc(Nc2nc(N3CCOCC3)nc3c2ncn3Cc2ccccc2)cc1 | > 20000 | > 12.5 | > 4000 | – | – | – | – | – | – | – | – | – | – | – |
| CC(O)CNc1nc(Nc2ccc(Br)cc2)c2ncn(C3CCCCO3)c2n1 (stereo not drawn) | 1140 | 27.9 | 2430 | – | – | – | – | – | – | – | – | – | – | – |
| N[C@H]1CC[C@H](Nc2nc(Nc3ccc(Br)cc3)c3ncn(Cc4ccccc4)c3n2)CC1 | 798 | 3.07 | 2290 | – | – | – | – | – | – | – | – | – | – | – |
| NCCCCCCNc1nc(Nc2ccc(CN3CCOCC3)cc2)c2ncn(C3CCCC3)c2n1 | 10 | 3.79 | 86 | 10.3 | 4.09 | 2250 | 54 | 3.59 | 7.27 | – | 5000 | 69 | 2920 | 1020 |
| COc1ccc(CNc2nc(Nc3ccc(CN4CCOCC4)cc3)c3ncn(C4CCCC4)c3n2)cc1 | 209 | 6.69 | 892 | – | – | – | – | – | – | – | – | – | – | – |
| CC(O)CNc1nc(Nc2ccc(Br)cc2)c2ncn(Cc3ccccc3)c2n1 (stereo not drawn) | 9850 | 9.45 | > 4000 | – | – | – | – | – | – | – | – | – | – | – |
| CN1CCN(c2nc(Nc3ccc(Br)cc3)c3ncn(Cc4ccccc4)c3n2)CC1 | > 20000 | 3.8 | > 4000 | – | – | – | – | – | – | – | – | – | – | – |
| OCCNc1nc(Nc2ccc(CN3CCOCC3)cc2)c2ncn(C3CCCC3)c2n1 | 29 | 2 | 110 | – | – | – | – | – | – | – | – | – | – | – |
| CC(O)CNc1nc(Nc2ccc(Br)cc2)c2ncn(C(C)C)c2n1 (stereo not drawn) | 591 | 17.8 | 1500 | – | – | – | – | – | – | – | – | – | – | – |

Now those with a lower IC50 [1], led by results:

| IC50 [1] [nM] | GI50 (K562) [µM] | GI50 (MV4-11) [nM] | GI50 at 72 h (in vitro [2]) [µM] | GI50 at 72 h (in vitro [3]) [µM] | GI50 (HCC827) [nM] | GI50 (MOLM-13) [nM] | GI50 (THP-1) [µM] | GI50 at 72 h (in vitro [4]) [µM] | IC50 [5] [nM] | GI50 (MCF7) [nM] | IC50 [6] [nM] | GI50 (U-937) [nM] | Structure (SMILES) | GI50 (Kasumi 1) [nM] |
| --- | --- | --- | --- | --- | --- | --- | --- | --- | --- | --- | --- | --- | --- | --- |
| 3 | 2.07 | 1 | 4.44 | 22 | 592 | 4 | 0.514 | 12.9 | 10 | 1050 | 2 | 605 | CCN1CCN(c2ccc(Nc3nc(N[C@H]4CC[C@H](N)CC4)nc4c3ncn4C3CCCC3)cc2)CC1 | 839 |
| 4 | 1.22 | 3 | 5.95 | 9.8 | 456 | 4 | 0.693 | 14.6 | 13 | 1060 | 28 | 638 | N[C@H]1CC[C@H](Nc2nc(Nc3ccc(N4CC5(COC5)C4)cc3)c3ncn(C4CCCC4)c3n2)CC1 | 734 |
| 1 | 2.1 | 11 | 6.27 | 3.88 | 1660 | 19 | 3.74 | 10.4 | – | 2100 | 5 | 1340 | NCCCCNc1nc(Nc2ccc(CN3CCOCC3)cc2)c2ncn(C3CCCC3)c2n1 | 2240 |
| 3 | 0.94 | 18 | 12.1 | 14 | 1070 | 24 | 3.11 | 15.9 | 21 | 487 | 11 | 3170 | N[C@H]1CC[C@H](Nc2nc(Nc3ccc(N4CCCC4)cc3)c3ncn(C4CCCC4)c3n2)CC1 | 569 |
| 2 | 0.965 | 2 | 4.53 | 23.3 | 521 | 4 | 1.16 | 12.2 | 21 | 320 | 7 | 1570 | N[C@H]1CC[C@H](Nc2nc(Nc3ccc(N4CCOCC4)cc3)c3ncn(C4CCCC4)c3n2)CC1 | 816 |
| 6 | 0.7 | 17 | – | – | – | – | – | – | – | – | – | – | N[C@H]1CC[C@H](Nc2nc(Nc3ccc(N4CCN(Cc5ccccc5)CC4)cc3)c3ncn(C4CCCC4)c3n2)CC1 | – |
| 4 | 1.3 | 4 | – | – | – | – | – | – | – | – | – | – | N[C@H]1CC[C@H](Nc2nc(Nc3ccc(N4CCOCC4)nc3)c3ncn(C4CCCC4)c3n2)CC1 | – |
| 4 | 3.49 | 11 | 8.06 | 7.56 | 1410 | 17 | 6.91 | 13 | – | 3260 | 7 | 4070 | NCCCCNc1nc(Nc2ccc(N3CCOCC3)cc2)c2ncn(C3CCCC3)c2n1 | 2020 |
| 5 | 0.84 | 21 | – | – | – | – | – | – | – | – | – | – | N[C@H]1CC[C@H](Nc2nc(Nc3ccc(Cl)cc3)c3ncn(C4CCCC4)c3n2)CC1 | – |
| 5 | 1.53 | 35 | 14.2 | 5.88 | 1120 | 20 | 2.42 | 11.2 | – | 2120 | 65 | 3630 | NCCCCCNc1nc(Nc2ccc(CN3CCOCC3)cc2)c2ncn(C3CCCC3)c2n1 | 1280 |
| 1 | 1.33 | 12 | 11.4 | 10.3 | 976 | 4 | 4.36 | 15.4 | – | 2150 | 3 | 3420 | CCN1CCN(c2ccc(Nc3nc(NCCCCN)nc4c3ncn4C3CCCC3)cc2)CC1 | 2070 |
